# Data from PubChem BioAssay (NCI).
#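 Cells were grown in 96-well plates and exposed to each compound for 48 hours at five concentrations; endpoints were interpolated linearly between bracketing concentrations, or set to the highest concentration if not reached. TGI: total growth inhibition.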
# What was measured:
# Test in all cases: NCI-60 cell line screen, 48 h
# HCT-15 colon = system: HCT-15 colon
# SNB-78 CNS = system: SNB-78 CNS
# TK-10 renal = system: TK-10 renal
# SK-MEL-2 melanoma = system: SK-MEL-2 melanoma
# OVCAR-5 ovarian = system: OVCAR-5 ovarian
# DLD-1 colon = system: DLD-1 colon
# SF-539 CNS = system: SF-539 CNS
# UACC-257 melanoma = system: UACC-257 melanoma
# KM12 colon = system: KM12 colon
# HS 578T breast = system: HS 578T breast
smiles,measurement,setting,value
Cc1cccc(C)c1NC(=O)CCc1nc(=S)[nH][nH]1,TGI,HCT-15 colon,> 100 µM
same,TGI,SNB-78 CNS,> 100 µM
same,TGI,TK-10 renal,> 100 µM
same,TGI,SK-MEL-2 melanoma,> 100 µM
same,TGI,OVCAR-5 ovarian,> 100 µM
same,TGI,DLD-1 colon,> 100 µM
same,TGI,SF-539 CNS,> 100 µM
CC(C)OP(=O)(OC(C)C)/C(N)=N/Nc1ccc([N+](=O)[O-])cc1,TGI,HCT-15 colon,> 100 µM
same,TGI,SNB-78 CNS,> 100 µM
same,TGI,TK-10 renal,> 100 µM
same,TGI,SK-MEL-2 melanoma,> 100 µM
same,TGI,OVCAR-5 ovarian,> 100 µM
same,TGI,DLD-1 colon,> 100 µM
same,TGI,SF-539 CNS,> 100 µM
same,TGI,UACC-257 melanoma,> 100 µM
same,TGI,KM12 colon,> 100 µM
Cc1c(NC(=S)NC(=O)c2ccc([N+](=O)[O-])cc2)c(=O)n(-c2ccccc2)n1C,TGI,HCT-15 colon,> 100 µM
same,TGI,SNB-78 CNS,> 100 µM
same,TGI,TK-10 renal,> 100 µM
same,TGI,SK-MEL-2 melanoma,> 100 µM
same,TGI,OVCAR-5 ovarian,> 100 µM
same,TGI,DLD-1 colon,> 100 µM
same,TGI,SF-539 CNS,> 100 µM
same,TGI,UACC-257 melanoma,> 100 µM
same,TGI,KM12 colon,> 100 µM
N/N=C1\C(=O)N(c2ccc(Cl)cc2Cl)C(=O)C(=O)C1c1nc2ccccc2o1 (centres undefined),TGI,HCT-15 colon,> 100 µM
same,TGI,SNB-78 CNS,> 100 µM
same,TGI,TK-10 renal,> 100 µM
same,TGI,SK-MEL-2 melanoma,> 100 µM
same,TGI,OVCAR-5 ovarian,> 100 µM
same,TGI,DLD-1 colon,> 100 µM
same,TGI,SF-539 CNS,> 100 µM
same,TGI,UACC-257 melanoma,> 100 µM
same,TGI,KM12 colon,> 100 µM
CC1CCSC(N(C(=O)N(C)c2ccccc2)c2ccccc2)=N1 (centres undefined),TGI,HCT-15 colon,> 100 µM
same,TGI,SNB-78 CNS,> 100 µM
same,TGI,TK-10 renal,> 100 µM
same,TGI,SK-MEL-2 melanoma,> 100 µM
same,TGI,OVCAR-5 ovarian,> 100 µM
same,TGI,DLD-1 colon,> 100 µM
same,TGI,SF-539 CNS,> 100 µM
same,TGI,UACC-257 melanoma,> 100 µM
same,TGI,KM12 colon,> 100 µM
COC(=O)CC(NC(=O)OCc1ccccc1)C(C(=O)OCc1ccccc1)C(C)(OC)OC (centres undefined),TGI,HCT-15 colon,> 100 µM
same,TGI,TK-10 renal,> 100 µM
same,TGI,SK-MEL-2 melanoma,36.5 µM
same,TGI,DLD-1 colon,> 100 µM
same,TGI,SF-539 CNS,> 100 µM
same,TGI,UACC-257 melanoma,85.6 µM
O=C1C=CC(=O)c2c(O)c(NCCOCCO)c(Cl)c(O)c21,TGI,HCT-15 colon,3.64 µM
same,TGI,SNB-78 CNS,30.2 µM
same,TGI,TK-10 renal,26.6 µM
same,TGI,SK-MEL-2 melanoma,21.7 µM
same,TGI,OVCAR-5 ovarian,34.1 µM
same,TGI,DLD-1 colon,5.51 µM
same,TGI,SF-539 CNS,15 µM
same,TGI,UACC-257 melanoma,8.34 µM
same,TGI,KM12 colon,15.1 µM
CC(=O)OCC(=O)[C@@]12OC(C)(C)O[C@@H]1C[C@H]1[C@@H]3CC(C=O)=C4C=C(OCCCl)CC[C@]4(C)[C@@]3(F)[C@@H](O)C[C@@]12C,TGI,HCT-15 colon,> 100 µM
same,TGI,SNB-78 CNS,68.8 µM
same,TGI,TK-10 renal,> 100 µM
same,TGI,SK-MEL-2 melanoma,58.6 µM
same,TGI,OVCAR-5 ovarian,> 100 µM
same,TGI,DLD-1 colon,> 100 µM
same,TGI,SF-539 CNS,80.9 µM
same,TGI,UACC-257 melanoma,80.6 µM
same,TGI,KM12 colon,> 100 µM
COc1ccc(CCc2cc(OC)cc(OC)c2)cc1,TGI,HCT-15 colon,> 100 µM
same,TGI,SNB-78 CNS,> 100 µM
same,TGI,TK-10 renal,> 100 µM
same,TGI,SK-MEL-2 melanoma,> 62 µM
same,TGI,OVCAR-5 ovarian,> 100 µM
same,TGI,DLD-1 colon,> 100 µM
same,TGI,SF-539 CNS,> 100 µM
same,TGI,UACC-257 melanoma,> 100 µM
same,TGI,KM12 colon,> 100 µM
O=C1CC(c2[nH]nc3ccccc23)C(=O)N1c1ccccc1 (centres undefined),TGI,HCT-15 colon,> 100 µM
same,TGI,HS 578T breast,> 100 µM
same,TGI,SNB-78 CNS,> 100 µM
same,TGI,TK-10 renal,> 100 µM
same,TGI,SK-MEL-2 melanoma,> 100 µM
same,TGI,OVCAR-5 ovarian,> 100 µM
same,TGI,DLD-1 colon,> 100 µM
same,TGI,SF-539 CNS,> 100 µM
same,TGI,UACC-257 melanoma,> 100 µM
same,TGI,KM12 colon,> 100 µM
O=C1/C(=C/c2ccccc2)CN(C(=O)CCN2CCCC2)C/C1=C\c1ccccc1,TGI,HCT-15 colon,3.97 µM
same,TGI,SNB-78 CNS,16.5 µM
same,TGI,TK-10 renal,8.62 µM
same,TGI,SK-MEL-2 melanoma,8.41 µM
same,TGI,OVCAR-5 ovarian,7.7 µM
same,TGI,DLD-1 colon,3.12 µM
same,TGI,SF-539 CNS,5.4 µM
same,TGI,UACC-257 melanoma,6.65 µM
same,TGI,KM12 colon,1.82 µM
CC(C)CCCC(C)[C@H]1CCC2[C@@H]3CCC4Nc5c(cnn5-c5ccccc5)C[C@]4(C)C3CC[C@@]21C (some centres undefined),TGI,HCT-15 colon,> 100 µM
same,TGI,SNB-78 CNS,> 100 µM
same,TGI,TK-10 renal,> 100 µM
same,TGI,SK-MEL-2 melanoma,> 100 µM
same,TGI,OVCAR-5 ovarian,> 100 µM
same,TGI,DLD-1 colon,> 100 µM
same,TGI,SF-539 CNS,> 100 µM
same,TGI,UACC-257 melanoma,> 100 µM
same,TGI,KM12 colon,> 100 µM
O=S(=O)(NCn1ccc2ccccc21)c1ccccc1,TGI,HCT-15 colon,> 100 µM
same,TGI,SNB-78 CNS,> 100 µM
same,TGI,TK-10 renal,> 100 µM
same,TGI,SK-MEL-2 melanoma,> 100 µM
same,TGI,OVCAR-5 ovarian,> 100 µM
same,TGI,DLD-1 colon,> 100 µM
same,TGI,SF-539 CNS,> 100 µM
same,TGI,UACC-257 melanoma,> 100 µM
same,TGI,KM12 colon,> 100 µM
O=c1ncccn1C1OC(CO)C(O)C1O (centres undefined),TGI,HCT-15 colon,> 100 µM
same,TGI,SNB-78 CNS,> 100 µM
same,TGI,TK-10 renal,> 100 µM
same,TGI,SK-MEL-2 melanoma,> 100 µM
same,TGI,OVCAR-5 ovarian,> 100 µM
same,TGI,DLD-1 colon,> 100 µM
same,TGI,KM12 colon,> 100 µM
O=C(O)CCNCCCCNCCC(=O)O,TGI,HCT-15 colon,> 100 µM
same,TGI,TK-10 renal,> 100 µM
same,TGI,SK-MEL-2 melanoma,> 100 µM
same,TGI,OVCAR-5 ovarian,> 100 µM
same,TGI,DLD-1 colon,> 100 µM
same,TGI,SF-539 CNS,> 100 µM
same,TGI,KM12 colon,> 100 µM
C=CCO/N=C(\OC(=O)c1ccc([N+](=O)[O-])cc1)c1ccccc1,TGI,HCT-15 colon,> 100 µM
same,TGI,SNB-78 CNS,> 100 µM
same,TGI,TK-10 renal,> 100 µM
same,TGI,SK-MEL-2 melanoma,> 100 µM
same,TGI,OVCAR-5 ovarian,> 100 µM
same,TGI,DLD-1 colon,> 100 µM
same,TGI,SF-539 CNS,> 100 µM
same,TGI,KM12 colon,> 100 µM
COc1ccc(C(=O)C(CC2C(=O)NC(=O)NC2=O)c2ccc(OC)cc2)cc1 (centres undefined),TGI,HCT-15 colon,> 100 µM
same,TGI,SNB-78 CNS,> 100 µM
same,TGI,TK-10 renal,> 100 µM
same,TGI,SK-MEL-2 melanoma,> 100 µM
same,TGI,OVCAR-5 ovarian,> 100 µM
same,TGI,DLD-1 colon,> 100 µM
same,TGI,SF-539 CNS,> 100 µM
same,TGI,UACC-257 melanoma,> 100 µM
same,TGI,KM12 colon,> 100 µM
